Experimental data reported in paper PMC7400623, “Effect of lysine side chain length on histone lysine acetyltransferase catalysis” (Scientific Reports, 2020).
Each block holds one substance with its values, some of them ahead of it.

What was measured:
[1] = molecular target: Human GCN5 catalytic domain (residues 497-662) (human) (UniProt Q92830)
[2] = molecular target: Human PCAF catalytic domain (residues 498-658) (human) (UniProt Q92831)
GCN5 (KAT2A) = molecular target: T1, GCN5 (KAT2A) (Homo sapiens, UniProt Q92830); experiment: MALDI-TOF MS enzymatic assay of GCN5-catalyzed acetylation of histone peptides; type: biochemical; conditions: after 3 h; 2 µM GCN5, 100 µM peptide, 300 µM AcCoA, 50 mM Hepes, 0.1 mM EDTA, 1 mM DTT, pH 8.0, 37 °C; MALDI-TOF MS
T1 construct: Human GCN5 catalytic domain (residues 497–662 in pET28a-LIC vector); His-tag; host or cells: E. coli BL21(DE3)
Procedure: (§1) MALDI-TOF MS enzymatic assays were carried out to investigate KAT-catalyzed acetylation of synthetic histone peptides. The enzymatic activity of the recombinantly expressed human KATs was measured at different time points (2 µM KAT enzyme, 100 µM histone peptide, 300 µM AcCoA, buffer: 50 mM Hepes, 0.1 mM EDTA, 1 mM DTT, pH = 8.0, 37 °C, hereafter used as standard conditions) (Fig. 3b,c). […] As further control, H4 and H3 peptides containing stereochemically inverted D-lysine were synthesized.
(§2) The KAT enzymatic activity towards histone peptides was measured at different time points under standard conditions (2 µM KAT enzyme, 100 µM peptide, 300 µM AcCoA) in the reaction buffer (50 mM HEPES, 0.1 mM EDTA, 1 mM DTT, pH = 8.0). The reactions were carried out in a final volume of 50 µL and shaken up in a Thermomixer C at 750 rpm, at 37 °C. The reactions were quenched by the addition of TFA 10% in MilliQ water at different time points. All reactions were aliquoted and mixed 1:2 with a solution of α-Cyano-4-hydroxycinnamic acid (CHCCA) in 1:1 MQ and ACN (0.1% TFA) and loaded onto an MTP 384 polished steel target to be analyzed by a UltrafleXtreme-II tandem mass spectrometer (Bruker, Billerica, MA, USA).

PCAF catalytic domain = molecular target: T2, PCAF catalytic domain (Homo sapiens, UniProt Q92831); experiment: MALDI-TOF MS kinetics assay, PCAF; type: biochemical; conditions: for kcat^app / Km: PCAF catalytic domain 50 nM (2 µM for unnatural analogs), peptide 1,050–0 µM, pH 7.4, 37 °C, MALDI-TOF MS, duplicates, value ± SD, SD; for kcat^app: AcCoA 100 µM (saturating), 50 mM HEPES, 0.1 mM EDTA, 0.01% TRITON-X; for Km: AcCoA 100 µM, read-out: Km^app; for decrease (drop) of kcat/Km for PCAF compared to the natural lysine peptide: K14 series vs H3K14, K9 series vs H3K9; for decrease (drop) of kcat/Km for PCAF compared to the natural lysine peptide / kcat^app/Km^app: PCAF; for kcat^app/Km^app: same kinetics conditions
T2 construct: Human PCAF catalytic domain (residues 498–658 in pET16b vector); SNAP-tag; His-tag; made in house; host or cells: E. coli BL21(DE3)
Text: (§3) Kinetic analysis of bi-substrate enzymes, such as KATs, is reckoned to be challenging and dependent on many factors. Firstly, given the nature of these enzymes, the binding of one of the two substrates directly influences the binding of the other (with a direct effect on the Michaelis–Menten parameter Km). […] Therefore, to obtain data that would allow us to directly compare the catalytic properties of the selected KATs towards our selection of histone peptides bearing lysine analogs with longer side chains, two strategies to standardize our kinetic evaluation were taken: i) all the experiments were carried out with the same saturating concentrations of AcCoA and ii) only KATs catalytic domains were employed in the study.
(§4) Histone peptides kinetics evaluation was carried out with a MALDI-TOF MS assay under steady-state conditions[57],[58]. Histone peptides (1,050–0 µM) were incubated with AcCoA (100 µM) and the reactions were started by the addition of the enzyme (MOF 570 nM, PCAF and GCN5 50 nM) in a final volume of 20 µL in kinetic buffer (50 mM HEPES, 0.1 mM EDTA, 0.01% TRITON-X, pH = 7.4). […] AcCoA stock solutions in milli-Q water were calibrated with a NanoDrop 2000 spectrophotometer (Thermo Scientific, Waltham, MA, USA), employing the characteristic molar extinction coefficient ε260nm = 16,400 M^−1 cm^−1. Reactions were incubated at 37 °C, shaken at 750 rpm and quenched with TFA 10% in milli-Q water at different time points, within linear production of acetylated peptides extrapolated from time-course plots. All reactions were aliquoted and mixed 1:2 with a solution of α-cyano-4-hydroxycinnamic acid (CHCCA) in 1:1 MQ and ACN (0.1% TFA) and loaded onto MTP 384 polished steel target to be analyzed by UltrafleXtreme-II tandem mass spectrometer (Bruker). The amount of acetylated peptide was calculated by integration of the product peak area and divided it by the amount of unacetylated peptide, taking in account all the ionic species, at any concentration points using the FlexAnalysis software. Kinetic values were extrapolated by fitting V0 values (µM of produced peptide per minutes) and histone peptide concentrations to the Michaelis–Menten equation using the GraphPad Prism 5 software. Kinetic experiments were carried out in duplicates and final values are reported as value ± SD.

PCAF (KAT2B) = molecular target: T3, PCAF (KAT2B) (Homo sapiens, UniProt Q92831); experiment: MALDI-TOF MS enzymatic assay of PCAF-catalyzed acetylation of histone peptides; type: biochemical; conditions: after 3 h; 2 µM PCAF, 100 µM peptide, 300 µM AcCoA, 50 mM Hepes, 0.1 mM EDTA, 1 mM DTT, pH 8.0, 37 °C; MALDI-TOF MS
T3 construct: Human PCAF catalytic domain (residues 498–658 in pET16b vector); SNAP-tag; His-tag; made in house; host or cells: E. coli BL21(DE3)
Procedure: as §1, §2

GCN5 catalytic domain = molecular target: T4, GCN5 catalytic domain (Homo sapiens, UniProt Q92830); experiment: MALDI-TOF MS kinetics assay, GCN5; type: biochemical; conditions: for decrease (drop) of kcat/Km for GCN5 compared to the natural lysine peptide: K14 series vs H3K14, K9 series vs H3K9; for decrease (drop) of kcat/Km for GCN5 compared to the natural lysine peptide / kcat^app/Km^app: GCN5; for kcat^app/Km^app: same kinetics conditions; for kcat^app / Km: GCN5 catalytic domain 50 nM (2 µM for unnatural analogs), peptide 1,050–0 µM, pH 7.4, 37 °C, MALDI-TOF MS, duplicates, value ± SD, SD; for kcat^app: AcCoA 100 µM (saturating), 50 mM HEPES, 0.1 mM EDTA, 0.01% TRITON-X; for Km: AcCoA 100 µM, read-out: Km^app
T4 construct: Human GCN5 catalytic domain (residues 497–662 in pET28a-LIC vector); His-tag; host or cells: E. coli BL21(DE3)
Text: as §3, §4

[3] = molecular target: Human GCN5 catalytic domain (residues 497-662) (human) (UniProt Q92830); remark: listed apart in the source
[4] = molecular target: Human PCAF catalytic domain (residues 498-658) (human) (UniProt Q92831); remark: listed apart in the source

T2 sequence (Q92831 498-658): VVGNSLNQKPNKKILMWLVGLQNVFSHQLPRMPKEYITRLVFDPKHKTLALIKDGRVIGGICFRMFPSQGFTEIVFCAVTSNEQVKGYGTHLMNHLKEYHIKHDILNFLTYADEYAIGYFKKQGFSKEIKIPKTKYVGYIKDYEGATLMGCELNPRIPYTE
Chain of Human PCAF catalytic domain (residues 498-658) (human) (Q92831 498-658): as above
Chain of Human GCN5 catalytic domain (residues 497-662) (human) (Q92830 497-662): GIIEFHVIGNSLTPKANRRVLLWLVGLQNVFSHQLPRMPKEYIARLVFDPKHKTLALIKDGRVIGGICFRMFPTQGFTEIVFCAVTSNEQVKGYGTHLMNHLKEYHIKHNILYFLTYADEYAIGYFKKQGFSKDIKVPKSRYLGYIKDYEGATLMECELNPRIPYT
T4 sequence (Q92830 497-662): as above
T3 sequence (Q92831 498-658): as the sequence (Q92831 498-658) above
T1 sequence (Q92830 497-662): as the sequence (Q92830 497-662) above

- IC50 of inhibition of GCN5-catalyzed acetylation of the H3K14 peptide (single point, 100 µM of each peptide, 1 h, 37 °C, MALDI-TOF MS; residual activity greater than 50%) [1]: > 100 µM
- IC50 of inhibition of PCAF-catalyzed acetylation of the H3K14 peptide (single point, 100 µM of each peptide, 1 h, 37 °C, MALDI-TOF MS; residual activity greater than 50%) [2]: > 100 µM
Substance: H3K*14 histone peptide containing Orn at position 14 (H3 residues 3-17, K9 acetylated)

Substance: TKQTARK Ac STGG hK 14 APR [H3hK14, 15-mer histone H3 peptide (K9ac) with hLys at position 14]
- acetylation (conversion to acetylated peptide) by GCN5 (GCN5 (KAT2A)): 62%
- kcat^app (PCAF catalytic domain): 0.0155 ± 0.0033 s⁻¹
- Km (PCAF catalytic domain): 488 ± 98 µM
- decrease (drop) of kcat/Km for PCAF compared to the natural lysine peptide (PCAF catalytic domain): 263 fold
- kcat^app/Km^app (PCAF catalytic domain): 31.7 M⁻¹ s⁻¹
- acetylation (conversion to acetylated peptide) by PCAF (PCAF (KAT2B)): 83%
- decrease (drop) of kcat/Km for GCN5 compared to the natural lysine peptide (GCN5 catalytic domain): 354 fold
- kcat^app/Km^app (GCN5 catalytic domain): 16.7 M⁻¹ s⁻¹
- kcat^app (GCN5 catalytic domain): 0.0145 ± 0.0017 s⁻¹
- Km (GCN5 catalytic domain): 878 ± 157 µM

- IC50 of inhibition of GCN5-catalyzed acetylation of the H3K9 peptide (single point, 100 µM of each peptide, 1 h, 37 °C, MALDI-TOF MS; residual activity greater than 50%) [1]: > 100 µM
- IC50 of inhibition of PCAF-catalyzed acetylation of the H3K9 peptide (single point, 100 µM of each peptide, 1 h, 37 °C, MALDI-TOF MS; residual activity greater than 50%) [2]: > 100 µM
Substance: H3K*9 histone peptide containing Dab at position 9 (H3 residues 1-15, K14 acetylated)

- IC50 of inhibition of GCN5-catalyzed acetylation of the H3K9 peptide (single point, 100 µM of each peptide, 1 h, 37 °C, MALDI-TOF MS; residual activity greater than 50%) [1]: > 100 µM
- IC50 of inhibition of PCAF-catalyzed acetylation of the H3K9 peptide (single point, 100 µM of each peptide, 1 h, 37 °C, MALDI-TOF MS; residual activity greater than 50%) [2]: > 100 µM
Substance: H3K*9 histone peptide containing Orn at position 9 (H3 residues 1-15, K14 acetylated)

- Km^app of GCN5-catalyzed acetylation (MALDI-TOF MS kinetics, steady state, saturating AcCoA, 37 °C, pH 7.4) [3]: 1050 μM
- Km^app of PCAF-catalyzed acetylation (MALDI-TOF MS kinetics, steady state, saturating AcCoA, 37 °C, pH 7.4) [4]: 606 μM
Substance: H3h2K14 histone peptide (H3 residues 3-17, K9 acetylated, h2K at position 14)

- Km^app of GCN5-catalyzed acetylation (MALDI-TOF MS kinetics, steady state, saturating AcCoA, 37 °C, pH 7.4) [3]: 878 μM
- Km^app of PCAF-catalyzed acetylation (MALDI-TOF MS kinetics, steady state, saturating AcCoA, 37 °C, pH 7.4) [4]: 488 μM
Substance: H3hK14 histone peptide (H3 residues 3-17, K9 acetylated, hLys at position 14)

Substance: TKQTARK Ac STGG h2K 14 APR [H3h2K14, 15-mer histone H3 peptide (K9ac) with h2K at position 14]
- acetylation (conversion to acetylated peptide) by GCN5 (GCN5 (KAT2A)): 25%
- kcat^app (PCAF catalytic domain): 0.0083 ± 0.0017 s⁻¹
- Km (PCAF catalytic domain): 606 ± 96 µM
- decrease (drop) of kcat/Km for PCAF compared to the natural lysine peptide (PCAF catalytic domain): 625 fold
- kcat^app/Km^app (PCAF catalytic domain): 13 M⁻¹ s⁻¹
- acetylation (conversion to acetylated peptide) by PCAF (PCAF (KAT2B)): 55%
- decrease (drop) of kcat/Km for GCN5 compared to the natural lysine peptide (GCN5 catalytic domain): 890 fold
- kcat^app/Km^app (GCN5 catalytic domain): 6.7 M⁻¹ s⁻¹
- kcat^app (GCN5 catalytic domain): 0.00667 ± 0.0017 s⁻¹
- Km (GCN5 catalytic domain): 1050 µM
